Measurements: PMC5218480 (PLoS ONE, 2017)

Tested on: MV-4-11 cells
Test: Gene expression microarray analysis (Affymetrix PrimeView) and GSEA
Type: cell-based, human
Set-up: RFU PODN (11730768_x_at) / Fold change /veh PODN (11730768_x_at) / RFU LINC00158 (11744669_a_at) / Fold change /veh LINC00158 (11744669_a_at) / RFU DUSP10 (11751237_a_at) / Fold change /veh DUSP10 (11751237_a_at) / RFU ID3 (11757404_x_at) / Fold change /veh ID3 (11757404_x_at) / RFU PLEKHG5 (11737974_s_at) / Fold change /veh PLEKHG5 (11737974_s_at) / RFU LRRC4B (11730491_at) / Fold change /veh LRRC4B (11730491_at) / RFU GIMAP4 (11747438_a_at) / Fold change /veh GIMAP4 (11747438_a_at) / RFU KRT8 (11758183_x_at) / Fold change /veh KRT8 (11758183_x_at) / RFU CNN1 (11734310_a_at) / Fold change /veh CNN1 (11734310_a_at) / RFU VPS37D (11726825_at) / Fold change /veh VPS37D (11726825_at) / RFU C10orf10 (11716522_x_at) / Fold change /veh C10orf10 (11716522_x_at) / RFU KIR2DL2 /// KIR2DL4 /// KIR2DL5A /// KIR2DL5B /// KIR2DS1 /// KIR2DS2 /// KIR2DS3 /// KIR2DS4 /// KIR3DL3 /// KIR3DL3 /// KIR3DS1 (11738374_at) / Fold change /veh KIR2DL2 /// KIR2DL4 /// KIR2DL5A /// KIR2DL5B /// KIR2DS1 /// KIR2DS2 /// KIR2DS3 /// KIR2DS4 /// KIR3DL3 /// KIR3DL3 /// KIR3DS1 (11738374_at) / RFU C1QL1 (11718748_at) / Fold change /veh C1QL1 (11718748_at) / RFU TMPRSS4 (11747572_a_at) / Fold change /veh TMPRSS4 (11747572_a_at) / RFU HAMP (11756126_x_at) / Fold change /veh HAMP (11756126_x_at) / RFU RNFT2 (11725882_a_at) / Fold change /veh RNFT2 (11725882_a_at) / RFU NR4A2 (11747474_a_at) / Fold change /veh NR4A2 (11747474_a_at) / RFU ABCC12 (11746883_a_at) / Fold change /veh ABCC12 (11746883_a_at) / RFU TMEM136 (11760407_x_at) / Fold change /veh TMEM136 (11760407_x_at) / RFU CLDN22 /// WWC2 (11732394_at) / Fold change /veh CLDN22 /// WWC2 (11732394_at) / RFU HLA-DPB1 (11760878_x_at) / Fold change /veh HLA-DPB1 (11760878_x_at) / RFU SPINT1 (11716480_a_at) / Fold change /veh SPINT1 (11716480_a_at) / RFU GAP43 (11754022_s_at) / Fold change /veh GAP43 (11754022_s_at) / RFU A4GNT (11735810_at) / Fold change /veh A4GNT (11735810_at) / RFU PRB3 (11715151_x_at) / Fold change /veh PRB3 (11715151_x_at) / RFU TUBB4B (11761932_at) / Fold change /veh TUBB4B (11761932_at) / RFU CAPN14 (11732068_a_at) / Fold change /veh CAPN14 (11732068_a_at) / RFU TMCC2 (11721928_a_at) / Fold change /veh TMCC2 (11721928_a_at) / RFU IRGQ (11745062_a_at) / Fold change /veh IRGQ (11745062_a_at) / RFU FAM174B (11720279_a_at) / Fold change /veh FAM174B (11720279_a_at) / RFU TMPRSS4 (11748680_a_at) / Fold change /veh TMPRSS4 (11748680_a_at) / RFU FAM212B (11763350_a_at) / Fold change /veh FAM212B (11763350_a_at) / RFU PLEKHG5 (11743358_a_at) / Fold change /veh PLEKHG5 (11743358_a_at) / RFU ZSCAN30 (11745921_a_at) / Fold change /veh ZSCAN30 (11745921_a_at) / RFU CMKLR1 (11741424_a_at) / Fold change /veh CMKLR1 (11741424_a_at) / RFU LOC101060620 /// MAPK8IP1 (11723275_at) / Fold change /veh LOC101060620 /// MAPK8IP1 (11723275_at) / RFU SPTSSB (11747773_x_at) / Fold change /veh SPTSSB (11747773_x_at) / RFU PRSS12 (11739890_at) / Fold change /veh PRSS12 (11739890_at) / RFU BIN1 (11741810_x_at) / Fold change /veh BIN1 (11741810_x_at) / RFU WNT11 (11732464_a_at) / Fold change /veh WNT11 (11732464_a_at) / RFU C10orf10 (11716521_a_at) / Fold change /veh C10orf10 (11716521_a_at) / RFU C5orf56 (11738089_at) / Fold change /veh C5orf56 (11738089_at) / RFU CYB561 (11721691_x_at) / Fold change /veh CYB561 (11721691_x_at) / RFU ANKRD19P (11752326_a_at) / Fold change /veh ANKRD19P (11752326_a_at) / RFU OR2T12 /// OR2T33 /// OR2T8 (11738714_s_at) / Fold change /veh OR2T12 /// OR2T33 /// OR2T8 (11738714_s_at) / RFU VCAN (11748164_a_at) / Fold change /veh VCAN (11748164_a_at) / RFU JSRP1 (11732532_at) / Fold change /veh JSRP1 (11732532_at) / RFU KRTAP10-11 (11738290_x_at) / Fold change /veh KRTAP10-11 (11738290_x_at) / RFU MYO3A (11730013_a_at) / Fold change /veh MYO3A (11730013_a_at) / RFU EBF3 (11725865_a_at) / Fold change /veh EBF3 (11725865_a_at) / RFU CAMK2N1 (11719241_x_at) / Fold change /veh CAMK2N1 (11719241_x_at) / RFU C5orf56 (11738088_a_at) / Fold change /veh C5orf56 (11738088_a_at) / RFU OLFML3 (11715873_a_at) / Fold change /veh OLFML3 (11715873_a_at) / RFU LOC100653217 /// NTM (11731650_a_at) / Fold change /veh LOC100653217 /// NTM (11731650_a_at) / RFU MAPK11 (11762145_a_at) / Fold change /veh MAPK11 (11762145_a_at) / RFU FIZ1 (11724087_x_at) / Fold change /veh FIZ1 (11724087_x_at) / RFU OASL (11726364_x_at) / Fold change /veh OASL (11726364_x_at) / RFU SOX15 (11748057_x_at) / Fold change /veh SOX15 (11748057_x_at) / RFU CD79A (11719716_a_at) / Fold change /veh CD79A (11719716_a_at) / RFU HIST1H1D (11736915_at) / Fold change /veh HIST1H1D (11736915_at) / RFU CASKIN2 (11723855_a_at) / Fold change /veh CASKIN2 (11723855_a_at) / RFU LOC730098 (11760151_x_at) / Fold change /veh LOC730098 (11760151_x_at) / RFU OR4N2 (11742367_at) / Fold change /veh OR4N2 (11742367_at) / RFU PRRT2 (11749266_a_at) / Fold change /veh PRRT2 (11749266_a_at) / RFU SNX32 (11753110_a_at) / Fold change /veh SNX32 (11753110_a_at) / RFU CDHR5 (11726645_a_at) / Fold change /veh CDHR5 (11726645_a_at) / RFU RCAN1 (11760418_a_at) / Fold change /veh RCAN1 (11760418_a_at) / RFU FAM167A (11723789_a_at) / Fold change /veh FAM167A (11723789_a_at) / RFU FAM26E (11764081_at) / Fold change /veh FAM26E (11764081_at) / RFU ISYNA1 (11749810_s_at) / Fold change /veh ISYNA1 (11749810_s_at) / RFU ACY1 (11761880_at) / Fold change /veh ACY1 (11761880_at) / RFU 11764098_at / Fold change /veh 11764098_at / RFU SAMD14 (11745864_x_at) / Fold change /veh SAMD14 (11745864_x_at) / RFU NPB (11741838_a_at) / Fold change /veh NPB (11741838_a_at) / RFU TMPRSS6 (11731388_a_at) / Fold change /veh TMPRSS6 (11731388_a_at) / RFU KRTAP10-2 (11738614_at) / Fold change /veh KRTAP10-2 (11738614_at) / RFU ARHGAP8 /// PRR5-ARHGAP8 (11727945_x_at) / Fold change /veh ARHGAP8 /// PRR5-ARHGAP8 (11727945_x_at) / RFU KRTAP5-7 /// NADSYN1 (11734609_at) / Fold change /veh KRTAP5-7 /// NADSYN1 (11734609_at) / RFU RASL12 (11751679_a_at) / Fold change /veh RASL12 (11751679_a_at) / RFU CDKN2B (11736163_a_at) / Fold change /veh CDKN2B (11736163_a_at) / RFU PRF1 (11729649_at) / Fold change /veh PRF1 (11729649_at) / RFU, ZNF638 /// ZNF638-IT1 / Fold change vs veh, ZNF638 /// ZNF638-IT1 / RFU, PANK3 / Fold change vs veh, PANK3 / RFU, SH3YL1 / Fold change vs veh, SH3YL1 / RFU, ZEB2 / Fold change vs veh, ZEB2 / RFU, NRIP1 / Fold change vs veh, NRIP1 / RFU, PTTG1IP / Fold change vs veh, PTTG1IP / RFU, CAPN2 / Fold change vs veh, CAPN2 / RFU, MED14 / Fold change vs veh, MED14 / RFU, SNORA58 / Fold change vs veh, SNORA58 / RFU, C1orf63 / Fold change vs veh, C1orf63 / RFU, LRRFIP1 / Fold change vs veh, LRRFIP1 / RFU, NDUFAF7 / Fold change vs veh, NDUFAF7 / RFU, SLC12A2 / Fold change vs veh, SLC12A2 / RFU, IBTK / Fold change vs veh, IBTK / RFU, ESF1 / Fold change vs veh, ESF1 / Fold change vs veh, TMEM50B / RFU, TAOK1 / Fold change vs veh, TAOK1 / RFU, ACBD3 / Fold change vs veh, ACBD3 / RFU, TMA16 / Fold change vs veh, TMA16 / RFU, RWDD3 / Fold change vs veh, RWDD3 / RFU, BCAT1 / Fold change vs veh, BCAT1 / RFU, EDEM3 / Fold change vs veh, EDEM3 / RFU, TMEM33 / Fold change vs veh, TMEM33 / RFU, WDR75 / Fold change vs veh, WDR75 / RFU, AHCTF1 / Fold change vs veh, AHCTF1 / RFU, TFRC / Fold change vs veh, TFRC / RFU, ZDHHC17 / Fold change vs veh, ZDHHC17 / RFU, NOM1 / Fold change vs veh, NOM1 / RFU, ARL8B / Fold change vs veh, ARL8B / RFU, ZBTB11 / Fold change vs veh, ZBTB11 / RFU, TAMM41 / Fold change vs veh, TAMM41 / RFU, KIAA1704 /// LOC100996395 / Fold change vs veh, KIAA1704 /// LOC100996395 / RFU, ING1 / Fold change vs veh, ING1 / RFU, TRMT61B / Fold change vs veh, TRMT61B / RFU, FUBP3 / Fold change vs veh, FUBP3 / RFU, TP53 / Fold change vs veh, TP53 / RFU, TNKS2 / Fold change vs veh, TNKS2 / RFU, ZFP14 / Fold change vs veh, ZFP14 / RFU, ACTR2 / Fold change vs veh, ACTR2 / RFU, PPP3R1 / Fold change vs veh, PPP3R1 / RFU, PIK3R1 / Fold change vs veh, PIK3R1 / RFU, HNRNPA1 / Fold change vs veh, HNRNPA1 / RFU, RNF170 / Fold change vs veh, RNF170 / RFU, ZNF28 / Fold change vs veh, ZNF28 / RFU, RNGTT / Fold change vs veh, RNGTT / RFU, OGT / Fold change vs veh, OGT / RFU, BRD1 / Fold change vs veh, BRD1 / RFU, MARS / Fold change vs veh, MARS / RFU, ZNF655 / Fold change vs veh, ZNF655 / RFU, FAHD1 / Fold change vs veh, FAHD1 / RFU, BDP1 / Fold change vs veh, BDP1 / RFU, LRRCC1 / Fold change vs veh, LRRCC1 / RFU, ARID1A / Fold change vs veh, ARID1A / RFU, ZNF146 / Fold change vs veh, ZNF146 / RFU, ZNF330 / Fold change vs veh, ZNF330 / RFU, GPN3 / Fold change vs veh, GPN3 / RFU, C9orf123 / Fold change vs veh, C9orf123 / RFU, N4BP2L2 / Fold change vs veh, N4BP2L2 / RFU, ARFIP1 / Fold change vs veh, ARFIP1 / RFU, FAM179B / Fold change vs veh, FAM179B / RFU, BCL10 / Fold change vs veh, BCL10 / RFU, UHRF1BP1L / Fold change vs veh, UHRF1BP1L / RFU, BET1 / Fold change vs veh, BET1 / RFU, CNOT2 / Fold change vs veh, CNOT2 / RFU, ZNF268 / Fold change vs veh, ZNF268 / Fold change vs veh, ZNF507 / RFU, DGCR2 / Fold change vs veh, DGCR2 / RFU, WDSUB1 / Fold change vs veh, WDSUB1 / Fold change vs veh, HSP90B1 /// MIR3652 / RFU, ADSS / Fold change vs veh, ADSS / RFU, GK / Fold change vs veh, GK / RFU, ZNF148 / Fold change vs veh, ZNF148 / RFU, TAF9 / Fold change vs veh, TAF9 / RFU, SLC1A5 / Fold change vs veh, SLC1A5 / RFU, SLMO2 / Fold change vs veh, SLMO2 / RFU, ABCC4 / Fold change vs veh, ABCC4 / RFU, LOC101060439 /// RAP1B / Fold change vs veh, LOC101060439 /// RAP1B / RFU, RFX7 / Fold change vs veh, RFX7 / RFU, GTPBP10 / Fold change vs veh, GTPBP10 / RFU, CNEP1R1 / Fold change vs veh, CNEP1R1 / RFU, BIVM-ERCC5 /// ERCC5 / Fold change vs veh, BIVM-ERCC5 /// ERCC5 / RFU, ILF3 / Fold change vs veh, ILF3 / RFU 11762660_at / Fold change /veh 11762660_at / RFU VCAN (11757783_s_at) / Fold change /veh VCAN (11757783_s_at) / RFU DDX43 (11728927_at) / Fold change /veh DDX43 (11728927_at) / RFU KRT8 (11758188_x_at) / Fold change /veh KRT8 (11758188_x_at) / RFU NKD1 (11759106_at) / Fold change /veh NKD1 (11759106_at) / RFU SRD5A1 (11742802_a_at) / Fold change /veh SRD5A1 (11742802_a_at) / RFU TPSAB1 /// TPSB2 (11721975_s_at) / Fold change /veh TPSAB1 /// TPSB2 (11721975_s_at) / RFU GSTM3 (11746129_a_at) / Fold change /veh GSTM3 (11746129_a_at) / RFU IL23R (11737362_x_at) / Fold change /veh IL23R (11737362_x_at) / RFU TMEM51 (11727254_a_at) / Fold change /veh TMEM51 (11727254_a_at) / RFU PIWIL2 (11732686_x_at) / Fold change /veh PIWIL2 (11732686_x_at) / RFU ORM1 (11744905_x_at) / Fold change /veh ORM1 (11744905_x_at) / RFU CCDC152 (11743942_at) / Fold change /veh CCDC152 (11743942_at) / RFU ECM1 (11717891_a_at) / Fold change /veh ECM1 (11717891_a_at) / RFU IL23R (11748794_a_at) / Fold change /veh IL23R (11748794_a_at) / RFU TNFAIP8L3 (11732012_x_at) / Fold change /veh TNFAIP8L3 (11732012_x_at) / RFU MBOAT4 (11741988_at) / Fold change /veh MBOAT4 (11741988_at) / RFU 11764193_at / Fold change /veh 11764193_at / RFU TMEM53 (11763286_at) / Fold change /veh TMEM53 (11763286_at) / RFU MAGEB2 (11727129_at) / Fold change /veh MAGEB2 (11727129_at) / RFU TMEM200A (11744735_a_at) / Fold change /veh TMEM200A (11744735_a_at) / RFU CCDC152 (11751479_a_at) / Fold change /veh CCDC152 (11751479_a_at) / RFU FAM211A (11726209_a_at) / Fold change /veh FAM211A (11726209_a_at) / RFU RGS16 (11746705_a_at) / Fold change /veh RGS16 (11746705_a_at) / RFU VCAN (11755009_s_at) / Fold change /veh VCAN (11755009_s_at) / RFU RHOB (11743442_s_at) / Fold change /veh RHOB (11743442_s_at) / RFU RGS16 (11720943_a_at) / Fold change /veh RGS16 (11720943_a_at) / RFU RGS16 (11720944_at) / Fold change /veh RGS16 (11720944_at) / RFU, VPS4B / Fold change vs veh, VPS4B / RFU, CREB1 / Fold change vs veh, CREB1 / RFU, DNAJC13 / Fold change vs veh, DNAJC13 / RFU, GNAQ / Fold change vs veh, GNAQ / RFU, CDK5R1 / Fold change vs veh, CDK5R1 / RFU, ZRANB3 / Fold change vs veh, ZRANB3 / RFU, CUL4A / Fold change vs veh, CUL4A / RFU, CCNY / Fold change vs veh, CCNY / RFU, UFL1 / Fold change vs veh, UFL1 / RFU, COG3 / Fold change vs veh, COG3 / RFU, DIAPH2 / Fold change vs veh, DIAPH2 / RFU, SKA2 / Fold change vs veh, SKA2 / RFU, AFF3 / Fold change vs veh, AFF3 / RFU, LMF1 / Fold change vs veh, LMF1 / RFU, IPO11 / Fold change vs veh, IPO11 / RFU, DFFB / Fold change vs veh, DFFB / RFU, FOXP1 / Fold change vs veh, FOXP1 / RFU, CARD8 / Fold change vs veh, CARD8 / RFU, STRN3 / Fold change vs veh, STRN3 / RFU, ADK / Fold change vs veh, ADK / RFU, RASSF2 / Fold change vs veh, RASSF2 / RFU, WIPF1 / Fold change vs veh, WIPF1 / RFU, LARP1B / Fold change vs veh, LARP1B / RFU, RASA1 / Fold change vs veh, RASA1 / RFU, RB1 / Fold change vs veh, RB1 / RFU, PPFIA1 / Fold change vs veh, PPFIA1 / RFU, MAT2A / Fold change vs veh, MAT2A / RFU, CCT5 / Fold change vs veh, CCT5 / RFU, WDR92 / Fold change vs veh, WDR92 / RFU, CUX1 / Fold change vs veh, CUX1 / RFU, TTC7A / Fold change vs veh, TTC7A / RFU, TMEM135 / Fold change vs veh, TMEM135 / RFU, DEPTOR / Fold change vs veh, DEPTOR / RFU, CPM / Fold change vs veh, CPM / RFU, DNAJB6 / Fold change vs veh, DNAJB6 / RFU, CACNA2D3 / Fold change vs veh, CACNA2D3 / RFU, DTX4 / Fold change vs veh, DTX4 / RFU, TFCP2 / Fold change vs veh, TFCP2 / RFU, GMCL1 /// GMCL1P1 / Fold change vs veh, GMCL1 /// GMCL1P1 / RFU, AEBP2 / Fold change vs veh, AEBP2 / RFU, SNHG1 /// SNORD22 /// SNORD25 /// SNORD26 /// SNORD27 /// SNORD28 /// SNORD29 /// SNORD31 / Fold change vs veh, SNHG1 /// SNORD22 /// SNORD25 /// SNORD26 /// SNORD27 /// SNORD28 /// SNORD29 /// SNORD31 / Fold change (Aza/veh), C12orf56 (ProbeSet 11735607_a_at) / Fold change (ACY-1035/veh), C12orf56 (ProbeSet 11735607_a_at) / Fold change (Aza/veh), FGFR1OP (ProbeSet 11751329_s_at) / Fold change (ACY-1035/veh), FGFR1OP (ProbeSet 11751329_s_at) / Fold change (Aza/veh), VPS36 (ProbeSet 11739960_a_at) / Fold change (ACY-1035/veh), VPS36 (ProbeSet 11739960_a_at) / RFU SYPL1 (11715823_x_at) / Fold change /veh SYPL1 (11715823_x_at) / RFU IGFBP7 (11715501_s_at) / Fold change /veh IGFBP7 (11715501_s_at) / RFU REEP3 (11722064_at) / Fold change /veh REEP3 (11722064_at) / RFU IGLL1 (11728026_x_at) / Fold change /veh IGLL1 (11728026_x_at): dose or concentration left out as unconfirmed
Conditions: ProbeSet 11727827_x_at; LIST B

In the case of `Nc1ncn([C@@H]2O[C@H](CO)[C@@H](O)[C@H]2O)c(=O)n1` [azacitidine], the “Fold change vs veh, NDUFAF7” value is reported as 0.98.
